Laboratory results: patent publication US20130303509A1, “NAMPT INHIBITORS” (AbbVie Inc., priority 2012, published 2013)

Key:
activated T cells = conditions: cited from earlier work
[1] = collagen induced arthritis; cited from earlier work
[2] = model of T-cell mediated autoimmune disorders; cited from earlier work
PC3 cells = assay: NAMPT Cell Proliferation Assay; format: cell-based; conditions: Homo sapiens, PC-3, 120 h, 5 days incubation, cell viability by Cell Titer Glo
In short: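 Five-day CellTiter-Glo viability readout in PC3 cells grown in RPMI/10% heat-inactivated FBS. Compounds added after overnight attachment as a 10-fold dilution series, […]. Percent inhibition fitted to sigmoidal dose-response to derive IC50.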

Structure (SMILES) | IC50 (PC3 cells) | proliferation and apoptosis of activated T cells (activated T cells) | efficacy in animal models of arthritis [1] | manifestations of experimental autoimmune encephalomyelitis [2]
O=C(/C=C/c1cccnc1)NCCCCC1CCN(C(=O)c2ccccc2)CC1 [FK866] |  | selectively block proliferation and induce apoptosis | efficacious | ameliorated the manifestations
N#Cc1cccc(C(=O)N2CCC(c3ccc(NC(=O)[C@H]4CCN(c5cccnn5)C4)cc3)CC2)c1 [Example 733, (3S)-N-{4-[1-(3-cyanobenzoyl)piperidin-4-yl]phenyl}-1-(pyridazin-3-yl)pyrrolidine-3-carboxamide] | 37.5 nM |  |  | 
Cc1ccncc1N1CC(C(=O)Nc2ccc(C3CCN(C(=O)C(C)(C)O)CC3)cc2)C1 [Example 72, N-{4-[1-(2-hydroxy-2-methylpropanoyl)piperidin-4-yl]phenyl}-1-(4-methylpyridin-3-yl)azetidine-3-carboxamide] | 5.69 nM |  |  | 

More lines, in order of falling IC50 (PC3 cells), values ahead:

IC50 (PC3 cells) | Structure (SMILES) | proliferation and apoptosis of activated T cells (activated T cells) | efficacy in animal models of arthritis [1] | manifestations of experimental autoimmune encephalomyelitis [2]
3.21 nM | CCCCCC(=O)N1CCC(c2ccc(NC(=O)C3CN(c4cccnn4)C3)cc2)CC1 [Example 321, N-[4-(1-hexanoylpiperidin-4-yl)phenyl]-1-(pyridazin-3-yl)azetidine-3-carboxamide] |  |  | 
0.64 nM | CCCC(=O)N1CCC(c2ccc(NC(=O)C3CN(c4cccnc4)C3)cc2)CC1 [Example 134, N-[4-(1-butanoylpiperidin-4-yl)phenyl]-1-(pyridin-3-yl)azetidine-3-carboxamide] |  |  | 
